In patent EP1102746B1, “SUBSTITUTED PHENYLAMIDINES WITH ANTITHROMBOTIC ACTION” (Boehringer Ingelheim Pharma GmbH & Co.KG, priority 1998, dated 2000):

Experiment: Plasma concentration of Verbindung A after oral administration to rhesus monkeys (determined by 3H-BIBU 52 ligand displacement on human platelets against a calibration curve)
Type: in vivo, Rhesusaffen
Conditions: rhesus monkey, oral 1 mg/kg, Rhesusaffe, concentration of Verbindung A measured
Protocol: Beispielsweise wurde die Konzentration der Verbindung A nach oraler Gabe der Verbindungen der Beispiele 1 (Verbindung B) und 1(1) (Verbindung C) der vorliegenden Erfindung im Plasma bestimmt und mit der Plasmakonzentration der Verbindung A nach oraler Gabe der Verbindung A verglichen.
Nach oraler Gabe von 1 mg/kg der zu untersuchenden Verbindungen am Rhesusaffen wird die Konzentration der Verbindung A im Plasma 4, 8, 12 und 24 Stunden nach Substanzgabe gemessen. Hierzu wird das Rhesusplasma mit einer Suspension von Humanthrombozyten in Plasma und ^3H-BIBU 52 (siehe DE-A-4,214,245) als Ligand inkubiert. Der freie und gebundene Ligand wird durch Zentrifugation getrennt und durch Szintillationszählung quantitativ bestimmt. Aus der Menge des gebundenen Liganden wird anhand einer Eichkurve die Konzentration der Verbindung A errechnet.
Dazu wird aus einer Antikubitalvene Spenderblut entnommen und mit Trinatriumzitrat antikoaguliert (Endkonzentration: 13 mMol/l). Das Blut wird 10 Minuten bei 170 x g zentrifugiert und das überstehende plättchenreiche Plasma (PRP) abgenommen. Das Restblut wird noch einmal bei 3200 x g scharf abzentrifugiert und das überstehende plättchenarme Plasma (PPP) abgenommen.
Für die Eichkurve zur Berechnung der Konzentration wird zu 995 µl PPP 5 µl Lösung der Verbindung A zugesetzt (Endkonzentration 5000 nMol/l). Aus dieser Plasmaprobe werden mit PPP weitere Plasmaproben verdünnt bis zu einer Endkonzentration von 2,5 nMol/l.
Zu 150 µl Plasmaprobe vom Rhesusaffen oder Eichkurvenplasma werden 10 µl ^3H-BIBU 52 (Endkonzentration 10 nMol/l), 10 µl ^14C-Sucrose (370 Bq) und 80 µl PRP gegeben und bei Raumtemperatur 20 Minuten inkubiert. Anschließend werden die Proben 5 Minuten bei 2000 x g zentrifugiert und der Überstand abgezogen. 100 µl des Überstandes werden versetzt mit 100 µl NaOH 0,2 Mol/l, 15 µl HCl 5 Mol/l und 2 ml Szintillator und die ^3H- und ^14C-Radioaktivität quantitativ gemessen. Das Pellet wird in 200 µl NaOH 0,2 Mol/l gelöst. 180 µl davon werden versetzt mit 15 µl HCl 5 Mol/l und 2 ml Szintillator und die ^3H- und ^14C-Radioaktivität gemessen. Das im Pellet noch verbliebene Restplasma wird aus dem ^14C-Gehalt bestimmt und abgezogen. Die Menge des gebundenen Liganden wird aus dem ^3H-Gehalt bestimmt. Die Menge des gebundenen Liganden wird gegen die Konzentration des Eichkurvenplasmas aufgetragen. Die Konzentration der Verbindung A im Rhesusplasma wird aus der Menge des gebundenen Liganden in der betreffenden Plasmaprobe im Vergleich mit der Eichkurve errechnet.
Die nachfolgende Tabelle enthält die gefundenen Werte: […]

Q: Which concentration at 4 h (4 h after dosing, read-out: Konz. von A in [nM], 4h) does the source give for N=C(N)c1ccc(NC(=O)CCC2CCN(CC(=O)O)CC2)cc1 [Verbindung A, 4-[2-[(4-Amidinophenyl)aminocarbonyl]ethyl]-1-carboxymethyl-piperidin] here?
A: Its concentration at 4 h is 174 nM.

Q: What about the concentration at 8 h (8 h after dosing, read-out: Konz. von A in [nM], 8h) of the same compound?
A: The concentration at 8 h was 38 nM.

Q: What about the concentration at 12 h (12 h after dosing, read-out: Konz. von A in [nM], 12h) of the same compound?
A: The concentration at 12 h was 25 nM.

Q: What about the concentration at 24 h (24 h after dosing, read-out: Konz. von A in [nM], 24h) of the same compound?
A: The concentration at 24 h was 3 nM.
